Laboratory results reported in ChEMBL document CHEMBL1149401, “Isolation and inhibitory activity against ERK phosphorylation of hydroxyanthraquinones from rhubarb” (2006).
The source made the active and inactive calls. The calls are words filed in the database; no cut-off is given here.

What was measured:
PC-3 = experiment: Antiproliferative activity against prostate cancer PC3 cell line at 20 uM by MTT method; assay type: functional; conditions: Homo sapiens
Phytophthora infestans = experiment: Antifungal activity against Phytopthora infestans at 0.5 mg/ml; assay type: functional
A-431 = experiment: Antiproliferative activity against human epidermal carcinoma A431 cell line at 20 uM by MTT method; assay type: functional
[1] = biological target: Platelet-derived growth factor receptor (Homo sapiens) (UniProt P09619+P16234); experiment: Inhibitory activity on PDGF-induced ERK phosphorylation in NIH3T3 cells at 20 uM; assay type: cell-based
Fusarium oxysporum = experiment: Antifungal activity against Fusarium oxysporum at 0.5 mg/ml; assay type: functional
Fusarium graminearum = experiment: Antifungal activity against Gibberella zeae at 0.5 mg/ml; assay type: functional
[2] = biological target: Epidermal growth factor receptor (Homo sapiens) (UniProt P00533); experiment: Inhibitory activity on EGF-induced ERK phosphorylation in prostate cancer PC3 cell line at 20 uM; assay type: cell-based; conditions: PC-3
Epidermal growth factor receptor (Homo sapiens), sequence (P00533 whole entry): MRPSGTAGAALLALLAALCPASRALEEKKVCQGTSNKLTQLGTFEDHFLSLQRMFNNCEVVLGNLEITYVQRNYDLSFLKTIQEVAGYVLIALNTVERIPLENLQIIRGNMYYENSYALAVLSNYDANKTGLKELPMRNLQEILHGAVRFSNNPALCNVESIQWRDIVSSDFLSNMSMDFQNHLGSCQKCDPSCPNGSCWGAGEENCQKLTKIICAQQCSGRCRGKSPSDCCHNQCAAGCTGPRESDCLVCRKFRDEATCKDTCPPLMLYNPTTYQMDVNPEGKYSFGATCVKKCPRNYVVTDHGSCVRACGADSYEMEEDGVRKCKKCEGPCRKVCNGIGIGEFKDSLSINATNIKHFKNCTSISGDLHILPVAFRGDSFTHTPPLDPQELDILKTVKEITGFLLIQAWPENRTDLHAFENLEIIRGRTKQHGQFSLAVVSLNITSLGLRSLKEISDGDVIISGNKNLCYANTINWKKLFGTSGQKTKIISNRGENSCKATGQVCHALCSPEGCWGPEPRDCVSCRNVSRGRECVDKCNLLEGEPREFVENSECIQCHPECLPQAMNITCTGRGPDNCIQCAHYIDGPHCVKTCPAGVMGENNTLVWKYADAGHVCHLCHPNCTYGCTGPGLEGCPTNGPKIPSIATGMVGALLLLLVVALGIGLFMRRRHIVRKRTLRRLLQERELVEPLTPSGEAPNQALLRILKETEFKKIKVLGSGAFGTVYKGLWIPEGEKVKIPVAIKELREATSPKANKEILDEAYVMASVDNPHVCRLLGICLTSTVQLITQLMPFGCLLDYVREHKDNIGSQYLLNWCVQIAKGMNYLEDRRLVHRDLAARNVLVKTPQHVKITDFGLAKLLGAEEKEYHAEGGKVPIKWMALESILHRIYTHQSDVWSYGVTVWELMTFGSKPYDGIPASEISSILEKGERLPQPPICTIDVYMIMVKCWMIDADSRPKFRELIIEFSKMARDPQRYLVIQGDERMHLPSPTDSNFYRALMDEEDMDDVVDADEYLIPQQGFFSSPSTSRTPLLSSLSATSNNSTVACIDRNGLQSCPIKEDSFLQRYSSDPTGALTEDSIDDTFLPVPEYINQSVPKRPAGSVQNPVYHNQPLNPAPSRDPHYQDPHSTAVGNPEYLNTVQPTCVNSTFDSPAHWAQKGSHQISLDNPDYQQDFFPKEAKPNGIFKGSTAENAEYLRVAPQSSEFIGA

| Compound | inhibition at 20 µM (PC-3) [%] | inhibition at 500 µg/mL (Phytophthora infestans) [%] | inhibition at 20 µM (A-431) [%] | Activity [1] | inhibition at 500 µg/mL (Fusarium oxysporum) [%] | inhibition at 500 µg/mL (Fusarium graminearum) [%] | Activity [2] | inhibition (PC-3) | inhibition (A-431) |
| --- | --- | --- | --- | --- | --- | --- | --- | --- | --- |
| O=C1c2cccc(O)c2C(=O)c2c(O)cc(CO)cc21 [ALOE-EMODIN] | 63.4 | 24.4 | 73.6 | inactive | 28.8 | 37.1 | Active | – | – |
| Cc1cc(O)c2c(c1)C(=O)c1cccc(O)c1C2=O [CHRYSOPHANOL] | 19.5 | 2.4 | 21.1 | inactive | 5.4 | 0 | – | – | – |
| Cc1cc(O)c2c(c1)C(=O)c1cc(O)cc(O)c1C2=O [EMODIN] | – | 21.2 | – | inactive | 9.37 | 25.7 | – | inactive | inactive |
| COc1cc(O)c2c(c1)C(=O)c1cc(C)cc(O)c1C2=O [PHYSCION] | 73.2 | 19.1 | 80.5 | inactive | 0 | 10.1 | – | – | – |
| O=C(O)c1cc(O)c2c(c1)C(=O)c1cccc(O)c1C2=O [RHEIN] | 54.2 | 39.5 | – | inactive | 39.8 | 33.4 | – | – | inactive |
